From article PMC4766633, “Unique PFK regulatory property from some mosquito vectors of disease, and from Drosophila melanogaster” (Parasites & Vectors, 2016)

Experiments:
[1] = molecular target: T1, AaPFK (Aedes aegypti phosphofructokinase) (Aedes aegypti, UniProt A0A903U8I9); experiment: coupled NADH oxidation assay (aldolase/TPI/alpha-GPDH), […] nm; format: biochemical; details: substrate inhibition, allosteric, second site; 1 mM F6P, 5 mM MgCl2, pH 7.4; crude extract; unit not printed (ATP range given in mM)
T1 construct: gene 5568472; native enzyme in supernatant of whole-insect homogenate, not purified
T1 sequence (A0A903U8I9 1-790): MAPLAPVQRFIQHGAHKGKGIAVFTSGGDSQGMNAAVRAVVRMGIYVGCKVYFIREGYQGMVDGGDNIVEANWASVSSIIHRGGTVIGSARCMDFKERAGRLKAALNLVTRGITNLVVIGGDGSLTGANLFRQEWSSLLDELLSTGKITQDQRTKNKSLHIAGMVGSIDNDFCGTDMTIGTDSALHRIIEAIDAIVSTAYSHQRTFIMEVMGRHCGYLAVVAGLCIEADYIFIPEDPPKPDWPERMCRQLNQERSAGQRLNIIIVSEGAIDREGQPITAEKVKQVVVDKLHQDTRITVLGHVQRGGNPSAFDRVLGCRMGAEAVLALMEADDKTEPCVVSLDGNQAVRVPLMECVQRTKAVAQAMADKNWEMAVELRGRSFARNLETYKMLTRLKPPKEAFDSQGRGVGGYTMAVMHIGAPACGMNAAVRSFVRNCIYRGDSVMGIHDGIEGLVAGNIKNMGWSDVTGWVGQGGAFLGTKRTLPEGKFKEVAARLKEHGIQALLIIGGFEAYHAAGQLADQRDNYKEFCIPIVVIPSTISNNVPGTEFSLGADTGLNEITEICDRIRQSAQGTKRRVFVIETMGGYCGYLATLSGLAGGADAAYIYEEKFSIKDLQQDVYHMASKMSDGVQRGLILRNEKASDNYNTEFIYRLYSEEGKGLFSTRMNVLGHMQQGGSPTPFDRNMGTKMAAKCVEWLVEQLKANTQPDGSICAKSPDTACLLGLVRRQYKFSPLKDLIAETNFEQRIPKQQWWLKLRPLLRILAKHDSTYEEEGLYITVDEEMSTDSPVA

[2] = substrate: Nc1ncnc2c1ncn2[C@@H]1O[C@H](COP(=O)(O)OP(=O)(O)OP(=O)(O)O)[C@@H](O)[C@H]1O; experiment: cells, lysate or membranes; details: 1 mM F6P, 5 mM MgCl2, pH 7.4 (Fig. 1 legend: pH 8.0); crude extract; Table 1 labels this number Kprime = K0.5^h with h 0.741

Nc1ncnc2c1ncn2[C@@H]1O[C@H](COP(=O)(O)OP(=O)(O)OP(=O)(O)O)[C@@H](O)[C@H]1O [ATP]
ATP / Activity [U (mg protein) ^-1] [1]: 4.536 ± 0.178

B1: AaPFK (Aedes aegypti phosphofructokinase) (Aedes aegypti) (protein)
chain: T1 sequence (A0A903U8I9 1-790)
K0.5 [2]: 0.43 ± 0.10 mM
